For this experiment, the system named is HSV-1. The experiment can be described thus: HSV-1 replication in infected Vero 76 cells, viral DNA hybridization capture assay. It is filed as cell-based, herpes simplex virus 1. The settings on record: Human alphaherpesvirus 1; HSV-1 (MOI=0.001) in Vero 76 cells, 40–48 hours incubation, chemiluminescent detection of HSV DNA. On the procedure: Vero 76 cells were maintained in MEM with Earle's salts, L-glutamine, 8% FBS (Hyclone, A-1111-L) and 100 units/mL Penicillin-100 μg/mL Streptomycin. For assay conditions, FBS was reduced to 2%. Cells are seeded into 96-well tissue culture plates at a density of 5×10^4 cells/well after being incubated for 45 min at 37° C. in the presence of HSV-1 or HSV-2 (MOI=0.001). Test compounds are added to the wells and the plates are incubated at 37° C. for 40–48 hours. Cell lysates are prepared as follows: media was removed and replaced with 150 μL/well 0.2 N NaOH with 1% Igepal CA 630 or NP-40. Plates were incubated up to 14 days at room temperature in a humidified chamber to prevent evaporation.
For the detection probe, a gel-purified, digoxigenin-labeled, 710-bp PCR fragment of the HSV UL-15 sequence was utilized. PCR conditions included 0.5 μM primers, 180 μM dTTP, 20 μM dUTP-digoxigenin (Boehringer Mannheim 1558706), 200 μM each of dATP, dCTP, and dGTP, 1×PCR Buffer II (Perkin Elmer), 2.5 mM MgCl2, 0.025 units/μL of AmpliTaq Gold polymerase (Perkin Elmer), and 5 ng of gel-purified HSV DNA per 100 μL Extension conditions were 10 min at 95° C., followed by 30 cycles of 95° C. for 1 min, 55° C. for 30 sec, and 72° C. for 2 min. The amplification was completed with a 10-min incubation at 72° C. Primers were selected to amplify a 728 bp probe spanning a section of the HSV1 UL15 open reading frame (nucleotides 249–977). Single-stranded transcripts were purified with Promega M13 Wizard kits. The final product was mixed 1:1 with a mixture of 6 M GuSCN, 100 mM EDTA and 200 μg/mL herring sperm DNA and stored at 4° C.
The capture DNA plasmid (HSV UL13 region in pUC) was linearized by cutting with Xba I, denatured for 15 min at 95° C. and diluted immediately into Reacti-Bind DNA Coating Solution (Pierce, 17250, diluted 1:1 with TE buffer, pH 8) at 1 ng/μL 75 μL/well were added to Corning (#3922 or 9690) white 96-well plates and incubated at room temperature for at least 4 hrs before washing twice with 300 μL/well 0.2×SSC/0.05% Tween-20 (SSC/T buffer). The plates were then incubated overnight at room temperature with 150 μL/well 0.2 N NaOH, 1% IGEPAL and 10 μg/mL herring sperm DNA.
Twenty-seven (27) μL of cell lysate was combined with 45 μL of hybridization solution (final concentration: 3M GuSCN, 50 mM EDTA, 100 μg/ml salmon sperm DNA, 5× Denhardt's solution, 0.25×APE, and 5 ng of the digoxigenin-labeled detection probe). APE is 1.5 M NH4-acetate, 0.15 M ammonium phosphate monobasic, and 5 mM EDTA adjusted to pH 6.0. Mineral oil (50 μL) was added to prevent evaporation. The hybridization plates were incubated at 95° C. for 10 minutes to denature the DNA, then incubated at 42° C. overnight. The wells were washed 6× with 300 μl/well SSC/T buffer then incubated with 75 μL/well anti-digoxigenin-HRP-conjugated antibody (Boehringer Mannheim 1207733, 1:5000 in TE) for 30 min at room temperature. The wells were washed 6× with […] with PBS/0.05% Tween-20 before 75 μL/well SuperSignal LBA substrate (Pierce) was added. The plates were incubated at room temperature for 30 minutes and chemiluminescence was measured in a Wallac Victor reader.
Turning to `c1cc(NC2CCCC2)n2nc(-c3ccncc3)c(-c3ccnc(NC4CCCC4)n3)c2c1` [Example 1, N-Cyclopentyl-3-[2-(cyclopentylamino)-4-pyrimidinyl]-2-(4-pyridinyl)pyrazolo[1,5-a]pyridin-7-amine], half-maximal inhibition (IC50) was put at 1500 nM.
As for `c1cncc(-c2nn3c(NC4CCCC4)cccc3c2-c2ccnc(NC3CCCC3)n2)c1` [Example 3, N-cyclopentyl-3-[2-(cyclopentylamino)-4-pyrimidinyl]-2-(3-pyridinyl)pyrazolo[1,5-a]pyridin-7-amine], the figure is 600 nM; as for `c1ccn2nc(-c3ccnc(NC4CCCC4)n3)c(-c3ccnc(NC4CCCC4)n3)c2c1` [Example 4, N-Cyclopentyl-N-(4-{2-[2-(cyclopentylamino)-4-pyrimidinyl]pyrazolo[1,5-a]pyridin-3-yl]-2-pyrimidinyl)amine], 3100 nM.
As for `c1cc(NC2CCCC2)n2nc(-c3ccnc(NC4CCCC4)n3)c(-c3ccnc(NC4CCCC4)n3)c2c1` [Example 6, N-Cyclopentyl-2,3-bis[2-(cyclopentylamino)-4-pyrimidinyl]pyrazolo[1,5-a]pyridin-7-amine], the figure is 400 nM; as for `CCCCNc1nccc(-c2nn3c(NCCCC)cccc3c2-c2ccnc(NCCCC)n2)n1` [Example 8, N-Butyl-2,3-bis[2-(butylamino)pyrimidin-4-yl]pyrazolo[1,5-a]pyridin-7-amine], 800 nM.
The value for `c1cc(NC2CC2)n2nc(-c3ccnc(NC4CC4)n3)c(-c3ccnc(NC4CC4)n3)c2c1` [Example 9, N-Cyclopropyl-2,3-bis[2-(cyclopropylamino)pyrimidin-4-yl]pyrazolo[1,5-a]pyridin-7-amine] was 23000 nM; that for `c1cc(N2CCOCC2)n2nc(-c3ccnc(N4CCOCC4)n3)c(-c3ccnc(N4CCOCC4)n3)c2c1` [Example 10] was 33000 nM; that for `CC(C)CNc1nccc(-c2nn3c(NCC(C)C)cccc3c2-c2ccnc(NCC(C)C)n2)n1` [Example 11, N-Isobutyl-2,3-bis[2-(isobutylamino)pyrimidin-4-yl]pyrazolo[1,5-a]pyridin-7-amine] was 1600 nM.
Regarding `c1ccc(CNc2nccc(-c3nn4c(NCc5ccccc5)cccc4c3-c3ccnc(NCc4ccccc4)n3)n2)cc1` [Example 12, N-Benzyl-2,3-bis[2-(benzylamino)pyrimidin-4-yl]pyrazolo[1,5-a]pyridin-7-amine], the half-maximal inhibitory concentration (IC50) came to 36000 nM.
The value for `CC(C)Nc1nccc(-c2nn3c(NC(C)C)cccc3c2-c2ccnc(NC(C)C)n2)n1` [Example 13, N-Isopropyl-2,3-bis[2-(isopropylamino)pyrimidin-4-yl]pyrazolo[1,5-a]pyridin-7-amine] was 3300 nM.
On to `CC(C)Nc1cc(-c2nn3c(NC(C)C)cccc3c2-c2ccnc(NC3CC3)n2)ccn1` [Example 17, 3-[2-(Cyclopropylamino)-4-pyrimidinyl]-N-isopropyl-2-[2-(isopropylamino)-4-pyridinyl]pyrazolo[1,5-a]pyridin-7-amine], for which the IC50 amounted to 2900 nM.
The value for `CC(C)Nc1nccc(-c2c(-c3ccnc(NC4CCCC4)c3)nn3c(NC4CCCC4)cccc23)n1` [Example 18, N-Cyclopentyl-2-[2-(cyclopentylamino)-4-pyridinyl]-3-[2-(isopropylamino)-4-pyrimidinyl]pyrazolo[1,5-a]pyridin-7-amine] was 1000 nM; that for `CC(C)Nc1cc(-c2nn3c(NC(C)C)cccc3c2-c2ccnc(NC3CCCC3)n2)ccn1` [Example 19, 3-[2-(Cyclopentylamino)-4-pyrimidinyl]-N-isopropyl-2-[2-(isopropylamino)-4-pyridinyl]pyrazolo[1,5-a]pyridin-7-amine] was 700 nM.
As for `CC(C)Nc1cc(-c2nn3c(NC4CCCC4)cccc3c2-c2ccnc(NC3CCCC3)n2)ccn1` [Example 20, N-Cyclopentyl-3-[2-(cyclopentylamino)-4-pyrimidinyl]-2-[2-(isopropylamino)-4-pyridinyl]pyrazolo[1,5-a]pyridin-7-amine], the figure is 500 nM.
The compound `c1coc(-c2nn3c(NC4CCCC4)cccc3c2-c2ccnc(NC3CCCC3)c2)c1` [Example 21, N-Cyclopentyl-3-[2-(cyclopentylamino)-4-pyridinyl]-2-(2-furyl)pyrazolo[1,5-a]pyridin-7-amine] gave an IC50 of 500 nM. In other words, the sub-micromolar range.
On to `Cc1ccoc1-c1nn2c(NC3CCCC3)cccc2c1-c1ccnc(NC2CCCC2)n1` [Example 22, N-Cyclopentyl-3-[2-(cyclopentylamino)-4-pyrimidinyl]-2-(3-methyl-2-furyl)pyrazolo[1,5-a]pyridin-7-amine], for which the IC50 was found to be 200 nM.
The value for `Cc1ccoc1-c1nn2c(NC3CCCC3)cccc2c1-c1ccnc(NC2CC2)n1` [Example 23, N-Cyclopentyl-3-[2-(cyclopropylamino)-4-pyrimidinyl]-2-(3-methyl-2-furyl)pyrazolo[1,5-a]pyridin-7-amine] was 800 nM; that for `Cc1ccoc1-c1nn2c(NC3CC3)cccc2c1-c1ccnc(NC2CC2)n1` [Example 24, N-Cyclopropyl-3-[2-(cyclopropylamino)-4-pyrimidinyl]-2-(3-methyl-2-furyl)pyrazolo[1,5-a]pyridin-7-amine] was 5000 nM; that for `c1coc(-c2nn3c(NC4CCCC4)cccc3c2-c2ccnc(NC3CCCC3)n2)c1` [Example 25, N-Cyclopentyl-3-[2-(cyclopentylamino)-4-pyrimidinyl]-2-(2-furyl)pyrazolo[1,5-a]pyridin-7-amine] was 500 nM.
The compound `c1coc(-c2nn3c(NC4CC4)cccc3c2-c2ccnc(NC3CCCC3)n2)c1` [Example 26, 3-[2-(Cyclopentylamino)-4-pyrimidinyl]-N-cyclopropyl-2-(2-furyl)pyrazolo[1,5-a]pyridin-7-amine] registered an IC50 of 1400 nM.
Regarding `Brc1ccc(-c2nn3c(NC4CCCC4)cccc3c2-c2ccnc(NC3CCCC3)n2)o1` [Example 27, 2-(5-Bromo-2-furyl)-N-cyclopentyl-3-[2-(cyclopentylamino)-4-pyrimidinyl]pyrazolo[1,5-a]pyridin-7-amine], the IC50 stood at 500 nM.
The value for `Cc1nc(-c2nn3c(NC4CCCC4)cccc3c2-c2ccnc(NC3CCCC3)c2)cs1` [Example 28, N-Cyclopentyl-3-[2-(cyclopentylamino)-4-pyridinyl]-2-(2-methyl-1,3-thiazol-4-yl)pyrazolo[1,5-a]pyridin-7-amine] was 1700 nM.

As a reminder, the IC50 is the point on the concentration scale where inhibition reaches its midpoint.

For the origin of these results see patent US7199120B2, “Pyrazolo-pyridine derivatives as antiherpes agents” (SmithKline Beecham Corporation, priority 2001, dated 2007).
